Experimental data as given in PMC3530165 (Chemistry & biology, 2012).
In brackets after ≈: the same amount, converted by molar mass. Like-named read-outs stand apart in the source and are kept apart here.

Assays:
[1] = system: mc^2-7000 Mtb; experiment: MABA MIC99 determination, mc^2-7000 strain; format: cell-based, Mycobacterium tuberculosis; details: for MIC99: Mycobacterium tuberculosis; for MIC99 mc^2-7000 Mtb acetate: M9 media with acetate
[2] = UV absorbance peak; details: UV absorbance peak in solution
[3] = Compound stability in solution; details: stability in cell growth media or buffer solutions
[4] = molecular target: T1, ICL (Mycobacterium tuberculosis, UniProt P9WKK7); details: read-out: IC50 against ICL; ref Muñoz-Elías and McKinney, 2005; cited from earlier work
T1 sequence (P9WKK7 1-428): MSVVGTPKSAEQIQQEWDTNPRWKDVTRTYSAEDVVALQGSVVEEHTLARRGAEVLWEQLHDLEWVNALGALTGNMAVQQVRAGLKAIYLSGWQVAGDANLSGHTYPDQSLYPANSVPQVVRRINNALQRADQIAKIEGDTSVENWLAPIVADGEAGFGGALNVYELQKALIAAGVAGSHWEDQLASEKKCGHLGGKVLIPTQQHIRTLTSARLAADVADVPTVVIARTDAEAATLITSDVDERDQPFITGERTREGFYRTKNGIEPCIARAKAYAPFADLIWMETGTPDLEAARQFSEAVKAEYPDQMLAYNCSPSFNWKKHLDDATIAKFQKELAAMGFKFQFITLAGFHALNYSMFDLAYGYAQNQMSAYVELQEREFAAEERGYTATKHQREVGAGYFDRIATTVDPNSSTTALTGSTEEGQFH

[5] = molecular target: T1, ICL; experiment: Isocitrate lyase; format: biochemical; details: single concentration point of 40 μg/ml
[6] = physchem
[7] = system: H37Rv; experiment: MABA MIC99 determination, H37Rv strain; format: cell-based, Mycobacterium tuberculosis
[8] = format: in vitro ADME; details: equilibrium dialysis
[9] = system: M. tuberculosis; format: in vivo; details: target dose 30 mg/kg, once a day, 9 days post-infection
[10] = read-out: MIC99 mc^2-7000 Mtb acetate
[11] = read-out: MIC99 mc^2-7000 Mtb dextrose

| Structure (SMILES) | λmax [2] [nM] | MIC99 mc^2-7000 Mtb dextrose [1] [µM] | MIC99 mc^2-7000 Mtb acetate [1] [µM] | Half-life [3] [h] | also measured |
| --- | --- | --- | --- | --- | --- |
| CO[C@H]1/C=C/O[C@@]2(C)Oc3c(C)c(O)c4c(O)c(c(/C=N/N5CCN(C)CC5)c(O)c4c3C2=O)NC(=O)/C(C)=C\C=C\[C@H](C)[C@H](O)[C@@H](C)[C@@H](O)[C@@H](C)[C@H](OC(C)=O)[C@@H]1C [Rifampicin, reference compound] |  |  |  |  | MIC99 [1, 10]: 0.25 µM (≈ 0.206 µg/mL); MIC99 [1, 11]: 0.125 µM (≈ 0.103 µg/mL) |
| O=C(O)C(=O)CC(=O)c1ccccc1F [Compound 2] | 333 | 200 (≈ 42 µg/mL) | >200 | 288 |  |
| O=C(O)CC[N+](=O)[O-] [3-nitropropionate] |  |  |  |  | IC50 [4]: 3 µM |
| Cc1ccc(C(=O)CC(=O)C(=O)O)cc1 [Compound 8] | 340 | 100 (≈ 20.6 µg/mL) | 50 (≈ 10.3 µg/mL) | 190 |  |
| O=C(O)C(=O)CC(=O)c1cccc(Cl)c1 [Compound 6] | 341 | 25 (≈ 5.67 µg/mL) | 25 (≈ 5.67 µg/mL) | 170 |  |
| O=C(O)/C(O)=C/C(=O)c1ccccc1 [PDKA, (Z)-2-hydroxy-4-oxo-4-phenylbut-2-enoic acid] | 340 |  |  |  | activity against ICL [5]: inactive; MIC99 [1, 10]: 50 µM (≈ 9.61 µg/mL); MIC99 [1, 11]: 25 µM (≈ 4.8 µg/mL); Half-life [6]: ~72 h |
| O=C(O)C(=O)CC(=O)c1ccccc1Cl [Compound 3] | 324 | 200 (≈ 45.3 µg/mL) | >200 | 840 |  |
| Cc1ccccc1C(=O)CC(=O)C(=O)O [Compound 1] | 326 | 200 (≈ 41.2 µg/mL) | >200 | 720 | H37Rv MIC99 on acetate ([7]; acetate): 16 µM; H37Rv MIC99 on dextrose ([7]; dextrose): 31 µM; Mouse plasma protein binding [8]: 70.7 ± 1.8% |
| COc1c(N2C[C@@H]3CCCN[C@@H]3C2)c(F)cc2c(=O)c(C(=O)O)cn(C3CC3)c12 [Moxifloxacin] |  |  |  |  | Decrease in log10 CFU in lungs [9]: 3.07 log10 CFU |
| O=C(O)C(=O)CC(=O)c1ccc(Br)cc1 [Compound 9] | 345 | 25 (≈ 6.78 µg/mL) | 50 (≈ 13.6 µg/mL) | 170 |  |
